Laboratory results published in PubChem BioAssay AID1963442 (Molecular Pharmacology Branch, DTP, NCI, 2024).

Test system: MPNST complex spheroid with HUVEC/MSC, growth, % test/control
Experiment: Anticancer human tumor MPNST cell line growth inhibition [Asc];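 note: compounds left on spheroids for seven days before reading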
Conditions: for IC50: curve of first compound; for viability, T/C: stronger effect = lower value
Method in brief: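 Tumor cells were grown as complex spheroids with human endothelial cells (HUVEC) and human mesenchymal stem cells as stroma. Agents were tested alone and in combination, in half-log steps down from the clinical Cmax, or from 10 microM where Cmax was unknown.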

[1] = second compound 0.00316 µM, first compound 0.0316 µM
[2] = second compound 0.00316 µM, first compound 0.1 µM
[3] = second compound 0.00316 µM, first compound 0.316 µM
[4] = second compound 0.00316 µM, first compound 1 µM
[5] = second compound 0.00316 µM, first compound 3.16 µM
[6] = second compound 0.00316 µM, first compound 10 µM
[7] = second compound 0.01 µM, first compound 0.0316 µM
[8] = second compound 0.01 µM, first compound 0.1 µM
[9] = second compound 0.01 µM, first compound 0.316 µM
[10] = second compound 0.01 µM, first compound 1 µM
[11] = second compound 0.01 µM, first compound 3.16 µM
[12] = second compound 0.01 µM, first compound 10 µM
[13] = second compound 0.0316 µM, first compound 0.0316 µM
[14] = second compound 0.0316 µM, first compound 0.1 µM
[15] = second compound 0.0316 µM, first compound 0.316 µM
[16] = second compound 0.0316 µM, first compound 1 µM
[17] = second compound 0.0316 µM, first compound 3.16 µM
[18] = second compound 0.0316 µM, first compound 10 µM
[19] = second compound 0.1 µM, first compound 0.0316 µM
[20] = second compound 0.1 µM, first compound 0.1 µM
[21] = second compound 0.1 µM, first compound 0.316 µM
[22] = second compound 0.1 µM, first compound 1 µM
[23] = second compound 0.1 µM, first compound 3.16 µM
[24] = second compound 0.1 µM, first compound 10 µM
[25] = second compound 0.316 µM, first compound 0.0316 µM
[26] = second compound 0.316 µM, first compound 0.1 µM
[27] = second compound 0.316 µM, first compound 0.316 µM
[28] = second compound 0.316 µM, first compound 1 µM
[29] = second compound 0.316 µM, first compound 3.16 µM
[30] = second compound 0.316 µM, first compound 10 µM
[31] = second compound 1 µM, first compound 0.0316 µM
[32] = second compound 1 µM, first compound 0.1 µM
[33] = second compound 1 µM, first compound 0.316 µM
[34] = second compound 1 µM, first compound 1 µM
[35] = second compound 1 µM, first compound 3.16 µM
[36] = second compound 1 µM, first compound 10 µM
[37] = second compound 0.00316 µM, first compound 0.00949 µM
[38] = second compound 0.00316 µM, first compound 0.03 µM
[39] = second compound 0.00316 µM, first compound 0.0949 µM
[40] = second compound 0.00316 µM, first compound 0.3 µM
[41] = second compound 0.00316 µM, first compound 0.949 µM
[42] = second compound 0.00316 µM, first compound 3 µM
[43] = second compound 0.01 µM, first compound 0.00949 µM
[44] = second compound 0.01 µM, first compound 0.03 µM
[45] = second compound 0.01 µM, first compound 0.0949 µM
[46] = second compound 0.01 µM, first compound 0.3 µM
[47] = second compound 0.01 µM, first compound 0.949 µM
[48] = second compound 0.01 µM, first compound 3 µM
[49] = second compound 0.0316 µM, first compound 0.00949 µM
[50] = second compound 0.0316 µM, first compound 0.03 µM
[51] = second compound 0.0316 µM, first compound 0.0949 µM
[52] = second compound 0.0316 µM, first compound 0.3 µM
[53] = second compound 0.0316 µM, first compound 0.949 µM
[54] = second compound 0.0316 µM, first compound 3 µM
[55] = second compound 0.1 µM, first compound 0.00949 µM
[56] = second compound 0.1 µM, first compound 0.03 µM
[57] = second compound 0.1 µM, first compound 0.0949 µM
[58] = second compound 0.1 µM, first compound 0.3 µM
[59] = second compound 0.1 µM, first compound 0.949 µM
[60] = second compound 0.1 µM, first compound 3 µM
[61] = second compound 0.316 µM, first compound 0.00949 µM
[62] = second compound 0.316 µM, first compound 0.03 µM
[63] = second compound 0.316 µM, first compound 0.0949 µM
[64] = second compound 0.316 µM, first compound 0.3 µM
[65] = second compound 0.316 µM, first compound 0.949 µM
[66] = second compound 0.316 µM, first compound 3 µM
[67] = second compound 1 µM, first compound 0.00949 µM
[68] = second compound 1 µM, first compound 0.03 µM
[69] = second compound 1 µM, first compound 0.0949 µM
[70] = second compound 1 µM, first compound 0.3 µM
[71] = second compound 1 µM, first compound 0.949 µM
[72] = second compound 1 µM, first compound 3 µM

## C#Cc1c(F)ccc2cc(O)cc(-c3ncc4c(N5CC6CCC(C5)N6)nc(OCC56CCCN5CC(F)C6)nc4c3F)c12 (stereo not drawn) + CNC(C)C(=O)NC1CN(S(=O)(=O)c2cccc(S(=O)(=O)N3CCC4CCC(C(=O)NC(c5ccccc5)c5ccccc5)N4C(=O)C(NC(=O)C(C)NC)C3)c2)CCC2CCC(C(=O)NC(c3ccccc3)c3ccccc3)N2C1=O
Second compound 0.00316 µM
  IC50: > 10 µM
Second compound 0.01 µM
  IC50: > 10 µM
Second compound 0.0316 µM
  IC50: > 10 µM
Second compound 0.1 µM
  IC50: > 10 µM
Second compound 0.316 µM
  IC50: > 10 µM
Second compound 1 µM
  IC50: > 10 µM
[1]
  viability, T/C: 65.6%
[2]
  viability, T/C: 43.9%
[3]
  viability, T/C: 57.7%
[4]
  viability, T/C: 78.2%
[5]
  viability, T/C: 75.3%
[6]
  viability, T/C: 53%
[7]
  viability, T/C: 96%
[8]
  viability, T/C: 99.5%
[9]
  viability, T/C: 60.1%
[10]
  viability, T/C: 63.5%
[11]
  viability, T/C: 73.1%
[12]
  viability, T/C: 46.2%
[13]
  viability, T/C: 103%
[14]
  viability, T/C: 66.8%
[15]
  viability, T/C: 69%
[16]
  viability, T/C: 70.5%
[17]
  viability, T/C: 52.1%
[18]
  viability, T/C: 56.6%
[19]
  viability, T/C: 56%
[20]
  viability, T/C: 67.8%
[21]
  viability, T/C: 78.2%
[22]
  viability, T/C: 64.1%
[23]
  viability, T/C: 63.2%
[24]
  viability, T/C: 53.1%
[25]
  viability, T/C: 73.2%
[26]
  viability, T/C: 75.1%
[27]
  viability, T/C: 70%
[28]
  viability, T/C: 58.3%
[29]
  viability, T/C: 60.3%
[30]
  viability, T/C: 67.3%
[31]
  viability, T/C: 76%
[32]
  viability, T/C: 79.5%
[33]
  viability, T/C: 69.4%
[34]
  viability, T/C: 82.5%
[35]
  viability, T/C: 62.2%
[36]
  viability, T/C: 84.3%

## C=C(F)C(=O)N1CCN(c2nc(OCC3CCCN3C)nc3c2CCN(c2cccc4cccc(Cl)c24)C3)CC1CC#N (stereo not drawn) + CNC(C)C(=O)NC1CN(S(=O)(=O)c2cccc(S(=O)(=O)N3CCC4CCC(C(=O)NC(c5ccccc5)c5ccccc5)N4C(=O)C(NC(=O)C(C)NC)C3)c2)CCC2CCC(C(=O)NC(c3ccccc3)c3ccccc3)N2C1=O
Second compound 0.00316 µM
  IC50: 3.75 µM
Second compound 0.01 µM
  IC50: 4.2 µM
Second compound 0.0316 µM
  IC50: 1.81 µM
Second compound 0.1 µM
  IC50: 3.55 µM
Second compound 0.316 µM
  IC50: 3.43 µM
Second compound 1 µM
  IC50: 3.64 µM
[1]
  viability, T/C: 77%
[2]
  viability, T/C: 75.2%
[3]
  viability, T/C: 65.9%
[4]
  viability, T/C: 89.8%
[5]
  viability, T/C: 58.3%
[6]
  viability, T/C: 1.84%
[7]
  viability, T/C: 85.9%
[8]
  viability, T/C: 75.9%
[9]
  viability, T/C: 97.4%
[10]
  viability, T/C: 85%
[11]
  viability, T/C: 66.2%
[12]
  viability, T/C: 0.9%
[13]
  viability, T/C: 99.4%
[14]
  viability, T/C: 76.5%
[15]
  viability, T/C: 81.4%
[16]
  viability, T/C: 54.6%
[17]
  viability, T/C: 46.9%
[18]
  viability, T/C: 1%
[19]
  viability, T/C: 79.3%
[20]
  viability, T/C: 58.5%
[21]
  viability, T/C: 88.4%
[22]
  viability, T/C: 73.5%
[23]
  viability, T/C: 55.6%
[24]
  viability, T/C: 1.36%
[25]
  viability, T/C: 103%
[26]
  viability, T/C: 52.8%
[27]
  viability, T/C: 61%
[28]
  viability, T/C: 69.5%
[29]
  viability, T/C: 57%
[30]
  viability, T/C: 1.32%
[31]
  viability, T/C: 91.9%
[32]
  viability, T/C: 60.4%
[33]
  viability, T/C: 51%
[34]
  viability, T/C: 77.1%
[35]
  viability, T/C: 56.8%
[36]
  viability, T/C: 0.71%

## CCN1C(C(=O)NC23CCC(C(=O)O)(CC2)CC3)C(c2cccc(Cl)c2F)C2(C(=O)Nc3cc(Cl)ccc32)C12CCCCC2 (stereo not drawn) + CNC(C)C(=O)NC1CN(S(=O)(=O)c2cccc(S(=O)(=O)N3CCC4CCC(C(=O)NC(c5ccccc5)c5ccccc5)N4C(=O)C(NC(=O)C(C)NC)C3)c2)CCC2CCC(C(=O)NC(c3ccccc3)c3ccccc3)N2C1=O
Second compound 0.00316 µM
  IC50: > 3 µM
Second compound 0.01 µM
  IC50: > 3 µM
Second compound 0.0316 µM
  IC50: > 3 µM
Second compound 0.1 µM
  IC50: > 3 µM
Second compound 0.316 µM
  IC50: > 3 µM
Second compound 1 µM
  IC50: > 3 µM
[37]
  viability, T/C: 98.4%
[38]
  viability, T/C: 64.1%
[39]
  viability, T/C: 79.5%
[40]
  viability, T/C: 85.6%
[41]
  viability, T/C: 74.1%
[42]
  viability, T/C: 76%
[43]
  viability, T/C: 100%
[44]
  viability, T/C: 106%
[45]
  viability, T/C: 86.3%
[46]
  viability, T/C: 64.1%
[47]
  viability, T/C: 78.9%
[48]
  viability, T/C: 63.4%
[49]
  viability, T/C: 87.2%
[50]
  viability, T/C: 66.3%
[51]
  viability, T/C: 69.3%
[52]
  viability, T/C: 70.5%
[53]
  viability, T/C: 68.8%
[54]
  viability, T/C: 68.1%
[55]
  viability, T/C: 92.9%
[56]
  viability, T/C: 77.7%
[57]
  viability, T/C: 70.3%
[58]
  viability, T/C: 80.6%
[59]
  viability, T/C: 58.5%
[60]
  viability, T/C: 64.6%
[61]
  viability, T/C: 68.8%
[62]
  viability, T/C: 71.5%
[63]
  viability, T/C: 86%
[64]
  viability, T/C: 68.2%
[65]
  viability, T/C: 68.1%
[66]
  viability, T/C: 62.1%
[67]
  viability, T/C: 97%
[68]
  viability, T/C: 68.2%
[69]
  viability, T/C: 87.7%
[70]
  viability, T/C: 65.3%
[71]
  viability, T/C: 65.6%
[72]
  viability, T/C: 70.2%

## Cc1nc(N2CCC3(CC2)COC(C)C3N)c(CO)nc1Sc1ccnc(N)c1Cl (stereo not drawn) + CNC(C)C(=O)NC1CN(S(=O)(=O)c2cccc(S(=O)(=O)N3CCC4CCC(C(=O)NC(c5ccccc5)c5ccccc5)N4C(=O)C(NC(=O)C(C)NC)C3)c2)CCC2CCC(C(=O)NC(c3ccccc3)c3ccccc3)N2C1=O
Second compound 0.00316 µM
  IC50: 0.105 µM
Second compound 0.01 µM
  IC50: 0.125 µM
Second compound 0.0316 µM
  IC50: 0.119 µM
Second compound 0.1 µM
  IC50: 0.157 µM
Second compound 0.316 µM
  IC50: 0.647 µM
Second compound 1 µM
  IC50: 0.3 µM
[37]
  viability, T/C: 90.5%
[38]
  viability, T/C: 56.4%
[39]
  viability, T/C: 57%
[40]
  viability, T/C: 41.5%
[41]
  viability, T/C: 62.1%
[42]
  viability, T/C: 30.6%
[43]
  viability, T/C: 103%
[44]
  viability, T/C: 54%
[45]
  viability, T/C: 60.7%
[46]
  viability, T/C: 51.6%
[47]
  viability, T/C: 39.5%
[48]
  viability, T/C: 25%
[49]
  viability, T/C: 114%
[50]
  viability, T/C: 59.2%
[51]
  viability, T/C: 65.9%
[52]
  viability, T/C: 40.1%
[53]
  viability, T/C: 42.8%
[54]
  viability, T/C: 40%
[55]
  viability, T/C: 68.9%
[56]
  viability, T/C: 66.1%
[57]
  viability, T/C: 52.5%
[58]
  viability, T/C: 45.8%
[59]
  viability, T/C: 32.6%
[60]
  viability, T/C: 28.8%
[61]
  viability, T/C: 60.8%
[62]
  viability, T/C: 80.8%
[63]
  viability, T/C: 60.3%
[64]
  viability, T/C: 57.4%
[65]
  viability, T/C: 47%
[66]
  viability, T/C: 31.7%
[67]
  viability, T/C: 71.5%
[68]
  viability, T/C: 67.8%
[69]
  viability, T/C: 49.9%
[70]
  viability, T/C: 48.1%
[71]
  viability, T/C: 52.9%
[72]
  viability, T/C: 28.6%
